From US6737383B1, “Herbicidal oxadiazolidines” (priority 1999, dated 2004)

Key:
duck salad = test: Test B flood test duck salad; format: in vivo, Heteranthera limosa
In short: (§1)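 Plants were grown to the 2-leaf stage before treatment with test chemical, then held in a greenhouse for twelve to sixteen days. Injury was visually rated against untreated controls on a 0–10 scale, where 0 is no effect and 10 is complete control.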

purple nutsedge = test: Test B pre/postemergence purple nutsedge; format: in vivo, Cyperus rotundus
In short: (§2)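 Test chemicals in a non-phytotoxic solvent mixture with surfactant were sprayed preemergence onto planted seeds and postemergence onto plants 2 to 18 cm tall (1- to 4-leaf stage). After twelve to sixteen days in a greenhouse, injury was visually rated against untreated controls from 0 (no effect) to 10 (complete control).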

corn = test: Test B pre/postemergence corn; format: in vivo, Zea mays
In short: as §2

crabgrass = test: Test B pre/postemergence crabgrass; format: in vivo, Digitaria sanguinalis
In short: as §2

pigweed = test: Test B pre/postemergence pigweed; format: in vivo, Amaranthus retroflexus
In short: as §2

surinam grass = test: Test B pre/postemergence surinam grass; format: in vivo, Brachiaria decumbens
In short: as §2

bamyardgrass = test: Test B flood test barnyardgrass; format: in vivo, Echinochloa crus-galli
In short: as §1

rice = test: Test B flood test rice; format: in vivo, Oryza sativa
In short: as §1

morningglory = test: Test B pre/postemergence morningglory; format: in vivo, Ipomoea hederacea
In short: as §2

smallflower flatsedge = test: Test B flood test smallflower flatsedge; format: in vivo, Cyperus difformis
In short: as §1

cocklebur = test: Test B pre/postemergence cocklebur; format: in vivo, Xanthium strumarium
In short: as §2

wheat = test: Test B pre/postemergence wheat; format: in vivo, Triticum aestivum
In short: as §2

giant foxtail = test: Test B pre/postemergence giant foxtail; format: in vivo, Setaria faberii
In short: as §2

sugar beet = test: Test B pre/postemergence sugar beet; format: in vivo, Beta vulgaris
In short: as §2

wild oat = test: Test B pre/postemergence wild oat; format: in vivo, Avena fatua
In short: as §2

rape = test: Test B pre/postemergence rape; format: in vivo, Brassica napus
In short: as §2

[1] = Rate 62 g/ha, headed Pre-emergence (flood test species), scale 0 to 10 (0 no effect, 10 complete control)
[2] = Rate 125 g/ha, Pre-emergence, flood test species, scale 0 to 10 where 0 is no effect and 10 is complete control
[3] = Rate 250 g/ha, Pre-emergence, flood-test species, scale 0 to 10, 0 is no effect, 10 is complete control
[4] = Rate 500 g/ha, Pre-emergence, flood test species, scale 0 to 10 (0 no effect, 10 complete control)
[5] = Postemergence, Rate 125 g/ha, scale 0 to 10, 0 is no effect, 10 is complete control
[6] = Preemergence, Rate 62 g/ha, scale of 0 to 10 where 0 is no effect and 10 is complete control
[7] = Preemergence, Rate 250 g/ha, scale of 0 to 10 where 0 is no effect and 10 is complete control
[8] = Preemergence, Rate 500 g/ha, scale of 0 to 10 where 0 is no effect and 10 is complete control
[9] = Rate 62 g/ha, Postemergence, scale 0 to 10 (0 no effect, 10 complete control)
[10] = Rate 500 g/ha, Postemergence, scale 0 to 10, 0 no effect, 10 complete control

Cc1ccccc1-n1c(=O)on(C(=O)N(c2ccc(Cl)cc2)C(C)C2CC2)c1=O (centres unmarked) [Compound 330]
0: Ducksalad plant response rating (duck salad; [1]) | Ducksalad plant response rating (duck salad; [2]) | Ducksalad plant response rating (duck salad; [3]) | Ducksalad plant response rating (duck salad; [4]) | Plant response rating, Nutsedge (purple nutsedge; [5]) | Nutsedge plant response rating (purple nutsedge; [6]) | Nutsedge plant response rating (0 to 10 scale) (purple nutsedge; Preemergence, Rate 125 g/ha) | Nutsedge plant response rating (purple nutsedge; [7]) | Nutsedge plant response rating (purple nutsedge; [8]) | Nutsedge plant response rating (purple nutsedge; [9]) | Plant response rating, Nutsedge (purple nutsedge; [10]) | Plant response rating, Corn (corn; [5]) | Corn plant response rating (corn; [6]) | Corn plant response rating (0 to 10 scale) (corn; Preemergence, Rate 125 g/ha) | Corn plant response rating (corn; [7]) | Corn plant response rating (corn; [8]) | Corn plant response rating (corn; [9]) | Plant response rating, Corn (corn; [10]) | Plant response rating, Crabgrass (crabgrass; [5]) | Crabgrass plant response rating (crabgrass; [6]) | Crabgrass plant response rating (0 to 10 scale) (crabgrass; Preemergence, Rate 125 g/ha) | Crabgrass plant response rating (crabgrass; [7]) | Crabgrass plant response rating (crabgrass; [8]) | Crabgrass plant response rating (crabgrass; [9]) | Plant response rating, Crabgrass (crabgrass; [10]) | Plant response rating, Redroot pigweed (pigweed; [5]) | Redroot pigweed plant response rating (pigweed; [6]) | Redroot pigweed plant response rating (0 to 10 scale) (pigweed; Preemergence, Rate 125 g/ha) | Redroot pigweed plant response rating (pigweed; [7]) | Redroot pigweed plant response rating (pigweed; [8]) | Redroot pigweed plant response rating (pigweed; [9]) | Plant response rating, Redroot pigweed (pigweed; [10]) | Plant response rating, B. signalgrass (surinam grass; [5]) | B. signalgrass plant response rating (surinam grass; [6]) | B. signalgrass plant response rating (0 to 10 scale, 0 is no effect, 10 is complete control) (surinam grass; Preemergence, Rate 125 g/ha) | B. signalgrass plant response rating (surinam grass; [7]) | B. signalgrass plant response rating (surinam grass; [8]) | B. signalgrass plant response rating (surinam grass; [9]) | Plant response rating, B. signalgrass (surinam grass; Rate 250 g/ha, Postemergence, scale of 0 to 10 where 0 is no effect and 10 is complete control) | Plant response rating, B. signalgrass (surinam grass; [10]) | Barnyardgrass plant response rating (bamyardgrass; [1]) | Barnyardgrass plant response rating (bamyardgrass; [2]) | Barnyardgrass plant response rating (bamyardgrass; [3]) | Barnyardgrass plant response rating (bamyardgrass; [4]) | Rice plant response rating (rice; [1]) | Rice plant response rating (rice; [2]) | Rice plant response rating (rice; [3]) | Rice plant response rating (rice; [4]) | Plant response rating, Morningglory (morningglory; [5]) | Morningglory plant response rating (morningglory; [6]) | Morningglory plant response rating (0 to 10 scale) (morningglory; Preemergence, Rate 125 g/ha) | Morningglory plant response rating (morningglory; [7]) | Morningglory plant response rating (morningglory; [8]) | Morningglory plant response rating (morningglory; [9]) | S. Flatsedge plant response rating (smallflower flatsedge; [1]) | S. Flatsedge plant response rating (smallflower flatsedge; [2]) | S. Flatsedge plant response rating (smallflower flatsedge; [3]) | S. Flatsedge plant response rating (smallflower flatsedge; [4]) | Plant response rating, Cocklebur (cocklebur; [5]) | Cocklebur plant response rating (cocklebur; [6]) | Cocklebur plant response rating (0 to 10 scale) (cocklebur; Preemergence, Rate 125 g/ha) | Cocklebur plant response rating (cocklebur; [7]) | Cocklebur plant response rating (cocklebur; [8]) | Cocklebur plant response rating (cocklebur; [9]) | Plant response rating, Cocklebur (cocklebur; [10]) | Plant response rating, Wheat (wheat; [5]) | Wheat plant response rating (wheat; [6]) | Wheat plant response rating (0 to 10 scale) (wheat; Preemergence, Rate 125 g/ha) | Wheat plant response rating (wheat; [7]) | Wheat plant response rating (wheat; [8]) | Wheat plant response rating (wheat; [9]) | Plant response rating, Wheat (wheat; [10]) | Plant response rating, Giant foxtail (giant foxtail; [5]) | Giant foxtail plant response rating (giant foxtail; [6]) | Giant foxtail plant response rating (0 to 10 scale) (giant foxtail; Preemergence, Rate 125 g/ha) | Giant foxtail plant response rating (giant foxtail; [7]) | Giant foxtail plant response rating (giant foxtail; [8]) | Giant foxtail plant response rating (giant foxtail; [9]) | Plant response rating, Giant foxtail (giant foxtail; [10]) | Plant response rating, Sugarbeets (sugar beet; [5]) | Sugarbeets plant response rating (sugar beet; [6]) | Sugarbeets plant response rating (0 to 10 scale) (sugar beet; Preemergence, Rate 125 g/ha) | Sugarbeets plant response rating (sugar beet; [7]) | Sugarbeets plant response rating (sugar beet; [8]) | Sugarbeets plant response rating (sugar beet; [9]) | Plant response rating, Sugarbeets (sugar beet; [10]) | Plant response rating, Wild oats (wild oat; [5]) | Wild oats plant response rating (wild oat; [6]) | Wild oats plant response rating (0 to 10 scale) (wild oat; Preemergence, Rate 125 g/ha) | Wild oats plant response rating (wild oat; [7]) | Wild oats plant response rating (wild oat; [8]) | Wild oats plant response rating (wild oat; [9]) | Plant response rating, Wild oats (wild oat; [10]) | Plant response rating, Rape (rape; [5]) | Rape plant response rating (rape; [6]) | Rape plant response rating (0 to 10 scale) (rape; Preemergence, Rate 125 g/ha) | Rape plant response rating (rape; [7]) | Rape plant response rating (rape; [8]) | Rape plant response rating (rape; [9]) | Plant response rating, Rape (rape; [10])
4: Plant response rating, Morningglory (morningglory; [10])
